The text below walks through data of patent US20250127752A1, “REDUCED REBOUND EFFECTS IN SUBJECTS TREATED FOR OVERWEIGHT OR OBESITY” (Empros Pharma AB, priority 2021, published 2025).

The conditions of series [1]: oral, conventional dosage form; cited from earlier work.
The conditions of series [2]: cited from earlier work; for Placebo adjusted reduction of body weight: oral administration for 6 months; for Additional weight loss relative to placebo: at one year, on average.
A short description of series [3]: Pre-dose (trough) plasma level of orlistat and acarbose at steady state, week 26. The conditions noted are these: steady state week 26, patients on active treatment. Type of series: in vivo, human.
The conditions of series [4]: cited from earlier work.
For series [5] the following is noted: cited from earlier work. This is another data set of the same source.

Where two headings read alike, the source gives them in different places.

As to `OCCN1C[C@H](O)[C@@H](O)[C@H](O)[C@H]1CO` [Miglitol], the “Fraction of the dose absorbed” value in series [1] is 100%.
For the compound `C[C@H]1O[C@H](O[C@H]2[C@H](O)[C@@H](O)[C@@H](O[C@H]3[C@H](O)[C@@H](O)C(O)O[C@@H]3CO)O[C@@H]2CO)[C@H](O)[C@@H](O)[C@@H]1N[C@H]1C=C(CO)[C@@H](O)[C@H](O)[C@H]1O` (stereo partly drawn) [acarbose, O-4,6-Dideoxy-4-[[(1S,4R,5S,6S)-4,5,6-trihydroxy-3-(hydroxymethyl)cyclohex-2-enyl]amino]-α-D-glucopyranosyl-(1→4)-O-α-D-gluco-pyranosyl-(1→4)-D-glucopyranose], the “Placebo adjusted reduction of body weight” value in series [2] is on record as “approx. 0.5%”. Besides, the “Patients in whom low plasma levels were measured” value in series [3] is listed as 3 of 75.
Consider `C[C@H]1CNCCc2ccc(Cl)cc21` [lorcaserin], for which the “Additional weight loss relative to placebo” value in series [2] is reported as around 3%. Also, in series [2] (human, in vivo), the “Body weight decrease more than placebo” value was “about 3.2 kg” and the “Body weight decrease more than placebo, of initial body weight” value is “about 3.2%”.
On to `CCCCCCCCCCC[C@@H](C[C@@H]1OC(=O)[C@H]1CCCCCC)OC(=O)[C@H](CC(C)C)NC=O` [orlistat, (S)—((S)-1-((2S,3S)-3-Hexyl-4-oxooxetan-2-yl)tridecan-2-yl) 2-formamido-4-methylpentanoate], for which, in series [4], the “Solubility in water” value is “practically insoluble in water” and the Water solubility result is on record as “less than 0.001 g/ml”. In addition, in series [2], the “Additional weight loss relative to placebo” value is around 3% and the “Placebo adjusted reduction of body weight” value is recorded as 2-3%. The “Approximate relative weight loss” value in series [2] (conventional dosage forms) is recorded as 2-3%. For the same compound, in series [2] (versus placebo 6%), the “Relative weight loss, best case scenario” value is recorded as 10%. For the same compound, the “Patients complaining about GI side-effects (diarrhea, oily spotting, fecal urgency)” value in series [5] (clinical trials, conventional dosage form) is at least 25%. Moreover, the “Participants reporting faecal incontinence” value in series [5] (similar 6-month trial) was 5%. Moreover, in series [5] (trials of longer duration), the “Participants reporting faecal incontinence” value is on record as “approximately 18%”. In series [1], the “Fraction of the dose absorbed” value is given as below 3% and the Plasma exposure is below 5 ng/mL. For the same compound, in series [3], the “Patients in whom low plasma levels were measured” value is 27 of 75.
